This note sets out measurements from patent US10821065B2, “Peptide for inhibiting biofilms” (SEOUL NATIONAL UNIVERSITY R&DB FOUNDATION, priority 2017, dated 2020).

For series [1], the system named is Streptococcus mutans biofilm. Kind of series: Streptococcus mutans biofilm formation, 0.1% crystal violet staining. It counts as cell-based. The note with it: 37° C., 24 hours; for S. mutans biofilm formation (crystal violet), single or co-treatment: 10 μg/ml HBD3-C15, 25 μg/ml CH, 0.02% CHX, or combination, FIG. 2A. The method, then: To confirm the effect of HBD3-C15 on a Streptococcus mutans biofilm, Streptococcus mutans was cultured in a Brain Heart Infusion (BHI) medium. The cultured Streptococcus mutans was prepared at 1×10^7 CFU/ml, and then 1% NaCl or 0.05% sucrose was added thereto to promote biofilm formation, followed by treatment with 50 μg/ml of HBD3-C15. After incubation at 37° C. for 24 hours, 0.1% crystal violet staining was performed for comparison of the degree of biofilm formation.
In addition, 0.05% sucrose was added to Streptococcus mutans, followed with treatment with HBD3-C15 at a concentration of 10 μg/ml, 30 μg/ml, or 50 μg/ml. After incubation at 37° C. for 24 hours, 0.1% crystal violet staining was performed for comparison of the degree of biofilm formation.
To determine whether HBD3-C15 is capable of inhibiting a biofilm by synergistic effects with calcium hydroxide (CH) or chlorohexidine (CHX), which is an existing dental therapeutic agent, Streptococcus mutans was cultured in a BHI medium and then prepared at 1×10^7 CFU/ml, and treated with 10 μg/ml of HBD3-C15, 25 μg/ml of CH, 0.02% CHX, or a combination thereof in the presence of 0.05% sucrose. After incubation at 37° C. for 24 hours, 0.1% crystal violet staining was performed for comparison of the degree of biofilm formation.

The test system of series [2] is Streptococcus mutans biofilm. Kind of series: Streptococcus mutans biofilm formation on human teeth dentin sections, scanning electron microscope. It counts as cell-based. The note with it: 10 μg/ml HBD3-C15, 25 μg/ml CH, 0.02% CHX, or combination; 0.05% sucrose; 37° C., 24 hours; FIG. 2B. The method, then:
In addition, human teeth dentin sections were prepared to represent an actual oral infection situation, 1×10^7 CFU/ml of Streptococcus mutans was treated, on the dentin sections, with 10 μg/ml of HBD3-C15, 25 μg/ml of CH, 0.02% CHX, or a combination thereof in the presence of 0.05% sucrose. After incubation at 37° C. for 24 hours, comparison of the degree of biofilm formation was conducted using a scanning electron microscope.

Series [3] relates to Enterococcus faecalis biofilm. Kind of series: Enterococcus faecalis biofilm formation on dentin sections, scanning electron microscope. The note with it: 5×10^6 CFU/ml; 10 μg/ml HBD3-C15, 25 μg/ml CH, 0.02% CHX, or combination; 37° C., 24 hours; FIG. 3. It counts as cell-based. As to the method: (§1) To confirm whether the Streptococcus mutans biofilm inhibition through synergistic effects of HBD3-C15 and an existing dental therapeutic agent is reproduced in the formation of biofilms formed by other dental infectious bacteria, Enterococcus faecalis and Streptococcus gordonii were cultured in a BHI medium and a Todd Hewitt yeast (THY) medium, respectively, and then E. faecalis and S. gordonii were prepared at 5×10^6 CFU/ml and 1×10^8 CFU/ml, respectively, and treated, on the dentin sections, with 10 μg/ml of HBD3-C15, 25 μg/ml of CH, 0.02% CHX, or a combination thereof. After incubation at 37° C. for 24 hours, comparison of the degree of biofilm formation was conducted using a scanning electron microscope.

The test system of series [4] is Streptococcus gordonii biofilm. The experiment in a line: Streptococcus gordonii biofilm formation on dentin sections, scanning electron microscope. It counts as cell-based. The conditions noted are these: 1×10^8 CFU/ml; 10 μg/ml HBD3-C15, 25 μg/ml CH, 0.02% CHX, or combination; 37° C., 24 hours; FIG. 3. As to the method: as §1
Series [5] is described as follows: Tooth discoloration of treated dentin sections, photographed. Further details: species or system human. The note with it: 30 μg/ml HBD3-C15, 0.002% CHX, 0.02% CHX, or combination (2% CHX positive control), 37° C., 7 days, FIG. 5. The method, then: According to previous papers, it has been reported that CHX, which is a typical dental therapeutic agent, causes side effects such as tooth discoloration. Thus, to confirm the effect of treatment with HBD3-C15 alone or a combination of HBD3-C15 and CHX on tooth discoloration, dentin sections were treated with 30 μg/ml of HBD3-C15, 0.002% CHX, 0.02% CHX, or a combination thereof, and 2% CHX was used as a positive control. Subsequently, the dentin sections were cultured at 37° C. for 7 days and photographed to observe the degree of tooth discoloration.

For series [6], the system named is Streptococcus mutans biofilm. Kind of series: Streptococcus mutans biofilm formation, confocal microscope. It counts as cell-based. The conditions noted are these: HBD3-C15 at 10, 30 or 50 μg/ml; 0.05% sucrose; FIG. 1C.

On to `N=C(NCCCCCCNC(=N)NC(=N)Nc1ccc(Cl)cc1)NC(=N)Nc1ccc(Cl)cc1` [CHX, chlorohexidine], for which the “S. mutans biofilm formation (crystal violet), single or co-treatment” value in series [1] (0.05% sucrose) was “inhibited”. The “S. mutans biofilm formation on dentin sections (SEM), single or co-treatment” value in series [2] is recorded as “inhibited”. The “E. faecalis biofilm formation on dentin sections (SEM), single or co-treatment” value in series [3] is “inhibited”. In addition, in series [4], the “S. gordonii biofilm formation on dentin sections (SEM), single or co-treatment” value is “inhibited”. Moreover, the tooth discoloration entry in series [5] was “induced by treatment with CHX alone in a concentration-dependent manner”.
For the molecule “G-K-C-S-T-R-G-R-K-C-C-R-R-K-K [HBD3-C15]”, the “S. mutans biofilm formation (crystal violet), single or co-treatment” value in series [1] (0.05% sucrose) was “inhibited”. Besides, the “formation of Streptococcus mutans biofilm (crystal violet)” value in series [1] (50 μg/ml HBD3-C15, biofilm promoted by 0.05% sucrose, FIG. 1A) is given as “inhibited”; in series [1] (50 μg/ml HBD3-C15, biofilm promoted by 1% NaCl, FIG. 1A), “inhibited”; in series [1] (HBD3-C15 at 10, 30 or 50 μg/ml, 0.05% sucrose, FIG. 1B) it was “inhibited in a concentration-dependent manner”. Moreover, the “formation of Streptococcus mutans biofilm (confocal microscope)” value in series [6] was “inhibit formation of a biofilm in a concentration-dependent manner”. In addition, the “S. mutans biofilm formation on dentin sections (SEM), single or co-treatment” value in series [2] is listed as “inhibited”. Moreover, the “E. faecalis biofilm formation on dentin sections (SEM), single or co-treatment” value in series [3] is “inhibited”. In series [4], the “S. gordonii biofilm formation on dentin sections (SEM), single or co-treatment” value is “inhibited”.
For the molecule `[Ca+2].[OH-].[OH-]` [CH, calcium hydroxide], the “S. mutans biofilm formation (crystal violet), single or co-treatment” value in series [1] (0.05% sucrose) was “inhibited”. For the same molecule, in series [2], the “S. mutans biofilm formation on dentin sections (SEM), single or co-treatment” value was “inhibited”. In addition, the “E. faecalis biofilm formation on dentin sections (SEM), single or co-treatment” value in series [3] is given as “inhibited”. Besides, the “S. gordonii biofilm formation on dentin sections (SEM), single or co-treatment” value in series [4] was “inhibited”.
